Experimental data: patent publication US20250099382A1, “Colloidal suspension of nutraceutical ingredients to treat traumatic brain injury” (priority 2023, published 2025)

Key:
TBI = settings: 100 mg/kg, rats; cited from earlier work
human lymphocytes = human lymphocytes in culture; cited from earlier work
rat [1] = settings: PubChem.gov, cited from earlier work; for LD50: rat, route not stated
rat [2] = experiment: LD50 reported by PubChem.gov, rat; settings: for human equivalent of LD50: LD50 divided by 6.2 (rat), times 65 kilograms
rats = settings: up to 5 grams per kilogram for 60 days; cited from earlier work
mice [3] = settings: up to 5 grams per kilogram for 60 days; cited from earlier work
mice [4] = experiment: LD50 reported by PubChem.gov, human conversion with the mouse factor 12.3; settings: LD50 divided by 12.3, times 65 kilograms
Source text: Much of the research for toxicity and efficacy studies is preclinical, which necessitates a conversion of preclinical data to human equivalent data for interpretation of implications of preclinical data to clinical studies. […] For conversion of preclinical data from mice to human, divide the mg/kg dosage by 12.3. One would then multiply the result by an approximated average weight in kilograms for human clinical subjects to establish a preliminary clinical dosage. For example, if the preclinical dosage indicating drug efficacy were 100 mg/kg, this dosage would be divided by 12.3 to get 8.13 mg/kg, which would then be multiplied by an average weight in kilograms designated for the clinical study. For an average clinical subject weight of 65 kilograms, the original 100 mg/kg preclinical dosage would translate to 528 mg, which would be the preliminary dosage for clinical studies. For conversion of preclinical data from rat to human, the animal dosage would be divided by 6.2, then multiplied by the average subject weight in kilograms for the clinical study.
To convert this preclinical data to human equivalent data, 2.2 grams divided by 12.3 is 179 mg, times 65 kilograms for a human subject weighing 65 kg is approximately 11.6 grams.
For human equivalency dosage, 100 mg/kg divided by 12.3 is 8.13 mg/kg, times 65 for a 65-kilogram clinical subject is 528 mg/kg. […]

mice [5] = settings: PubChem.gov, cited from earlier work
[6] = system: weight drop contusion TBI; settings: 100 mg/kg to mice after weight drop contusion TBI; cited from earlier work
platelets = settings: cited from earlier work

Oc1ccc(C=Cc2cc(O)cc(O)c2)cc1 [resveratrol, 3,5,4′-Trihydroxystilbene]
secondary injury from TBI (TBI): significantly attenuated secondary injury from TBI
genetic damage induced by permethrin (human lymphocytes): diminishes genetic damage induced by permethrin

Nc1ncnc2c1ncn2[C@@H]1O[C@H](COP(=O)([O-])OP(=O)([O-])OP(=O)([O-])[O-])[C@@H](O)[C@H]1O.[Mg+2].[Mg+2] [ATP, Adenosine triphosphate magnesium]
LD50 (rat [1]): greater than 2 grams per kilogram
human equivalent of LD50 (rat [2]): > 21 grams

Fulvic acid
toxicity or genotoxicity (rats): No toxicity or genotoxicity was found
toxicity or genotoxicity (mice [3]): No toxicity or genotoxicity was found

COc1cc(/C=C/C(=O)CC(=O)/C=C/c2ccc(O)c(OC)c2)ccc1O [curcumin, Curcumin]
human equivalent of LD50 (mice [4]): approximately 10.6 grams
LD50 (mice [5]; route not stated): greater than 2 grams per kilogram of animal weight
recovery after TBI [6]: Major improvements in recovery were noted
production of thromboxane A2 by platelets (platelets): reduced the production of thromboxane A2 by platelets

NCCS(=O)(=O)O [taurine]
LD50 (rat [1]): greater than 7 grams per kilogram
human equivalent of LD50 (rat [2]): 74 grams

N[C@@H](CCC(=O)N[C@@H](CS)C(=O)NCC(=O)O)C(=O)O [GSH, Glutathione]
human equivalent of intravenous LD50 (mice [4]): approximately 11.6 grams
LD50, intravenous (mice [5]; intravenous): 2.2 grams per kilogram of animal weight

CC(=O)O[C@H](CC(=O)[O-])C[N+](C)(C)C [acetyl L-carnitine, Acetyl L-carnitine]
LD50, intravenous (rat [1]; intravenous, rat species): 1,265 mg/kg
human equivalent dosage of intravenous LD50 (rat [2]; LD50 divided by 6.2, times 65 for a 65-kilogram human patient): 13.2 grams
